Results from a polymer gas permeability compilation.

With *Oc1ccc(Oc2cccc(*)c2C#N)c(-c2cccc(C)c2)c1 (repeat unit) the CH4 permeability was 0.05 Barrer, the CO2 permeability was 1.9 Barrer and the H2 permeability was 6.8 Barrer. For the same compound, the N2 permeability was 0.07 Barrer and the O2 permeability was 0.45 Barrer. In the case of *c1c(C)c(C)c(N2C(=O)c3cc4c(cc3C2=O)C2(CC(C)(C)c3cc5c(cc32)C(=O)N(*)C5=O)CC4(C)C)c(C)c1C (repeat unit), the CH4 permeability is reported as 390 Barrer, the CO2 permeability is reported as 3940 Barrer and the H2 permeability is reported as 1920 Barrer. For the same compound, the N2 permeability was 257 Barrer and the O2 permeability was 722 Barrer. With *C(=C(*)c1ccc([Si](C)(C)C)cc1)c1ccccc1 (repeat unit) the CH4 permeability was 1550 Barrer, the CO2 permeability was 4700 Barrer and the H2 permeability was 2600 Barrer. For the same compound, the N2 permeability was 550 Barrer and the O2 permeability was 1200 Barrer. Compound *C(=C(*)c1ccc([Si](C)(C)C)cc1)c1ccc(O[Si](C)(C)C(C)(C)C)cc1 (repeat unit) has a CH4 permeability of 1100 Barrer, a CO2 permeability of 3800 Barrer and an H2 permeability of 1500 Barrer. It also gave an N2 permeability of 390 Barrer and an O2 permeability of 830 Barrer. For *NC(=O)c1ccc(C(c2ccc(C(=O)O)c(C(=O)Nc3cc(Oc4ccc(*)c(N)c4)ccc3N)c2)(C(F)(F)F)C(F)(F)F)cc1C(=O)O (repeat unit), the CH4 permeability was 0.087 Barrer, the CO2 permeability was 3.69 Barrer and the N2 permeability was 0.17 Barrer. The O2 permeability was 0.97 Barrer. *c1ccc(Sc2ccc(Sc3ccc(Sc4ccc(Sc5ccc(N6C(=O)c7ccc(C(c8ccc9c(c8)C(=O)N(*)C9=O)(C(F)(F)F)C(F)(F)F)cc7C6=O)cc5)cc4)cc3)cc2)cc1 (repeat unit) showed a CH4 permeability of 0.26 Barrer, a CO2 permeability of 6.62 Barrer and an N2 permeability of 0.29 Barrer. The O2 permeability was 1.46 Barrer. *c1ccc(-c2ccc(Oc3ccc(C4(c5ccc(Oc6ccc(-c7ccc(N8C(=O)c9ccc(Oc%10ccc%11c(c%10)C(=O)N(*)C%11=O)cc9C8=O)cc7)cc6C(F)(F)F)cc5)c5ccccc5C(=O)N4c4ccccc4)cc3)c(C(F)(F)F)c2)cc1 (repeat unit) showed a CH4 permeability of 0.84 Barrer, a CO2 permeability of 14.6 Barrer and an N2 permeability of 0.96 Barrer. The O2 permeability was 4.22 Barrer. Compound *Oc1c(C)cc(C(C)(C)c2cc(C)c(OC(=O)c3cccc(C(*)=O)c3)c(Br)c2)cc1Br (repeat unit) has a CH4 permeability of 0.151 Barrer, a CO2 permeability of 5.45 Barrer and an H2 permeability of 23.3 Barrer. For the same compound, the N2 permeability was 0.219 Barrer and the O2 permeability was 1.52 Barrer. Work on *Oc1c(Br)cc(C2(c3cc(Br)c(OC(=O)c4cc(C(*)=O)cc(C(C)(C)C)c4)c(Br)c3)OC(=O)c3ccccc32)cc1Br (repeat unit) yielded a CH4 permeability of 1.09 Barrer, a CO2 permeability of 30.6 Barrer and an H2 permeability of 67.4 Barrer. For the same compound, the N2 permeability was 1.19 Barrer and the O2 permeability was 7.41 Barrer. In the case of *Oc1ccc(C(C)(C)c2ccc(C(C)(C)c3ccc(Oc4ccc(S(=O)(=O)c5ccc(*)cc5)cc4)cc3)cc2)cc1 (repeat unit), the CH4 permeability is reported as 0.34 Barrer, the CO2 permeability is reported as 6.8 Barrer and the H2 permeability is reported as 36 Barrer. The N2 permeability was 0.321 Barrer and the O2 permeability was 1.8 Barrer. */C(C)=C(/*)[Si](C)(C)CCCC (repeat unit) gave a CH4 permeability of 17 Barrer, a CO2 permeability of 100 Barrer and an H2 permeability of 65 Barrer. For the same compound, the N2 permeability was 8 Barrer and the O2 permeability was 29 Barrer. In the case of *C(=C(*)c1ccc([Si](C)(C)CCCCCCCC)cc1)c1ccc(CCCC)cc1 (repeat unit), the CO2 permeability is reported as 110 Barrer, the N2 permeability is reported as 7.9 Barrer and the O2 permeability is reported as 25 Barrer. Work on *Oc1c(C)cc(C(C)(C)c2cc(C)c(OC(*)=O)c(C)c2)cc1C (repeat unit) yielded a CH4 permeability of 0.89 Barrer, a CO2 permeability of 18.6 Barrer and an H2 permeability of 32 Barrer. The N2 permeability was 1.1 Barrer and the O2 permeability was 5.6 Barrer. *Oc1ccc(S(=O)(=O)c2ccc(Oc3ccc(C(C)(C)c4ccc(*)cc4)cc3CN3C(=O)c4ccccc4C3=O)cc2)cc1 (repeat unit) gave a CH4 permeability of 0.08 Barrer, a CO2 permeability of 2.12 Barrer and an N2 permeability of 0.08 Barrer. For the same compound, the O2 permeability was 0.54 Barrer. Compound *c1ccc(Oc2ccc(N3C(=O)c4ccc(S(=O)(=O)c5ccc6c(c5)C(=O)N(*)C6=O)cc4C3=O)cc2)cc1 (repeat unit) has an H2 permeability of 5.61 Barrer, an N2 permeability of 0.027 Barrer and an O2 permeability of 0.2 Barrer. In the case of *c1c(C)cc(-c2cc(C)c(N3C(=O)c4cc5c(cc4C3=O)C3(CC(C)(C)c4cc6c(cc43)C(=O)N(*)C6=O)CC5(C)C)c3ccccc23)c2ccccc12 (repeat unit), the CH4 permeability is reported as 359 Barrer, the CO2 permeability is reported as 4030 Barrer and the H2 permeability is reported as 1620 Barrer. For the same compound, the N2 permeability was 212 Barrer and the O2 permeability was 640 Barrer. Work on *c1ccc(Oc2ccc(N3C(=O)c4ccc(C(=O)c5ccc6c(c5)C(=O)N(*)C6=O)cc4C3=O)cc2)cc1 (repeat unit) yielded a CH4 permeability of 0.0109 Barrer, a CO2 permeability of 0.625 Barrer and an H2 permeability of 4.19 Barrer. The N2 permeability was 0.0178 Barrer and the O2 permeability was 0.18 Barrer. *Oc1ccc(C(C)(C)c2ccc(Oc3ccc(C(=O)c4ccc(C(C)(C)c5ccc(C(=O)c6ccc(*)cc6)cc5)cc4)cc3)cc2)cc1 (repeat unit) gave a CH4 permeability of 0.22 Barrer, a CO2 permeability of 4.4 Barrer and an H2 permeability of 12.4 Barrer. It also gave an N2 permeability of 0.21 Barrer and an O2 permeability of 1.1 Barrer. For *Oc1ccc(Oc2ccc(Oc3ccc(S(=O)(=O)c4ccc(*)cc4)cc3)cc2)cc1 (repeat unit), the CH4 permeability was 0.18 Barrer, the CO2 permeability was 4.3 Barrer and the H2 permeability was 15 Barrer. For the same compound, the N2 permeability was 0.196 Barrer and the O2 permeability was 1.1 Barrer.
